Assay results published in patent publication US9394446B2, “Method for recovering Ru complex dye from used dye solution” (Tanaka Kikinzoku Kogyo K.K., priority 2012, dated 2016).

Tests used:
[1] = Preliminary test: dissolving property of dye solution components in ether-based solvents, alkane-based solvents and water; settings: for dissolving property in Dibutyl ether: 1 mg (solvents: 1 mL) in 1 mL dibutyl ether; for dissolving property in Dibutyl ether / dissolving property in Diethyl ether / dissolving property in Diisopropyl ether / dissolving property in Heptane / dissolving property in Hexane / dissolving property in Isoamyl ether / dissolving property in Methyl propyl ether / dissolving property in Octane / dissolving property in Pentane / dissolving property in t-Butyl methyl ether / dissolving property in Water: 25° C.; for dissolving property in Diethyl ether: 1 mg (solvents: 1 mL) in 1 mL diethyl ether; for dissolving property in Diisopropyl ether: 1 mg (solvents: 1 mL) in 1 mL diisopropyl ether; for dissolving property in Heptane: 1 mg (solvents: 1 mL) in 1 mL heptane; for dissolving property in Hexane: 1 mg (solvents: 1 mL) in 1 mL hexane; for dissolving property in Isoamyl ether: 1 mg (solvents: 1 mL) in 1 mL isoamyl ether; for dissolving property in Methyl propyl ether: 1 mg (solvents: 1 mL) in 1 mL methyl propyl ether; for dissolving property in Octane: 1 mg (solvents: 1 mL) in 1 mL octane; for dissolving property in Pentane: 1 mg (solvents: 1 mL) in 1 mL pentane; for dissolving property in t-Butyl methyl ether: 1 mg (solvents: 1 mL) in 1 mL t-butyl methyl ether; for dissolving property in Water: 1 mg (solvents: 1 mL) in 1 mL water, for comparison
[2] = Mixing/dissolving behaviour of DMSO in ethers (inventors' observation); assay type: physicochemical

dissolving property of isoamyl ether, in words ([1]; isoamyl ether (C5H11—O—C5H11))	dissolving property of octane, in words ([1]; octane with a carbon number of 8)	mixing or dissolving in ethers (diethyl ether), in words [2]	Compound	dissolving property in Dibutyl ether [1]	dissolving property in Diethyl ether [1]	dissolving property in Diisopropyl ether [1]	dissolving property in Heptane [1]	dissolving property in Hexane [1]	dissolving property in Isoamyl ether [1]	dissolving property in Methyl propyl ether [1]	dissolving property in Octane [1]	dissolving property in Pentane [1]	dissolving property in t-Butyl methyl ether [1]	dissolving property in Water [1]
slightly inferior dissolving property	poor dissolving property		C[C@H](CCC(=O)O)[C@H]1CC[C@H]2[C@@H]3[C@H](O)C[C@@H]4C[C@H](O)CC[C@]4(C)[C@H]3CC[C@]12C [CDCA, chenodeoxychloic acid]	◯ (those having solubility of 0.05 g/L or more but less than 5 g/L and those miscible with a solvent for dye solution were labeled as “∘” with good dissolving property)	⊙ (those dissolved at 5 g/L or more and those fully miscible with a solvent for dye solution were labeled as “⊙” with excellent dissolving property)	⊙ (those dissolved at 5 g/L or more and those fully miscible with a solvent for dye solution were labeled as “⊙” with excellent dissolving property)	◯ (those having solubility of 0.05 g/L or more but less than 5 g/L and those miscible with a solvent for dye solution were labeled as “∘” with good dissolving property)	◯ (those having solubility of 0.05 g/L or more but less than 5 g/L and those miscible with a solvent for dye solution were labeled as “∘” with good dissolving property)	Δ (those having the solubility of less than 0.05 g/L were labeled as “Δ” with fair dissolving property)	⊙ (those dissolved at 5 g/L or more and those fully miscible with a solvent for dye solution were labeled as “⊙” with excellent dissolving property)	Δ (those having the solubility of less than 0.05 g/L were labeled as “Δ” with fair dissolving property)	◯ (those having solubility of 0.05 g/L or more but less than 5 g/L and those miscible with a solvent for dye solution were labeled as “∘” with good dissolving property)	⊙ (those dissolved at 5 g/L or more and those fully miscible with a solvent for dye solution were labeled as “⊙” with excellent dissolving property)	
			CCO [Ethanol, ethanol]	⊙ (those dissolved at 5 g/L or more and those fully miscible with a solvent for dye solution were labeled as “⊙” with excellent dissolving property)	⊙ (those dissolved at 5 g/L or more and those fully miscible with a solvent for dye solution were labeled as “⊙” with excellent dissolving property)	⊙ (those dissolved at 5 g/L or more and those fully miscible with a solvent for dye solution were labeled as “⊙” with excellent dissolving property)	⊙ (those dissolved at 5 g/L or more and those fully miscible with a solvent for dye solution were labeled as “⊙” with excellent dissolving property)	⊙ (those dissolved at 5 g/L or more and those fully miscible with a solvent for dye solution were labeled as “⊙” with excellent dissolving property)	⊙ (those dissolved at 5 g/L or more and those fully miscible with a solvent for dye solution were labeled as “⊙” with excellent dissolving property)	⊙ (those dissolved at 5 g/L or more and those fully miscible with a solvent for dye solution were labeled as “⊙” with excellent dissolving property)	⊙ (those dissolved at 5 g/L or more and those fully miscible with a solvent for dye solution were labeled as “⊙” with excellent dissolving property)	⊙ (those dissolved at 5 g/L or more and those fully miscible with a solvent for dye solution were labeled as “⊙” with excellent dissolving property)	⊙ (those dissolved at 5 g/L or more and those fully miscible with a solvent for dye solution were labeled as “⊙” with excellent dissolving property)	⊙ (those dissolved at 5 g/L or more and those fully miscible with a solvent for dye solution were labeled as “⊙” with excellent dissolving property)
			CCCCOc1ccc(-c2ccc(N(c3ccc(-c4ccc(C=C(C#N)C(=O)O)s4)cc3)c3ccc(-c4ccc(OCCCC)cc4OCCCC)cc3)cc2)c(OCCCC)c1 [D35]	◯ (those having solubility of 0.05 g/L or more but less than 5 g/L and those miscible with a solvent for dye solution were labeled as “∘” with good dissolving property)	⊙ (those dissolved at 5 g/L or more and those fully miscible with a solvent for dye solution were labeled as “⊙” with excellent dissolving property)	⊙ (those dissolved at 5 g/L or more and those fully miscible with a solvent for dye solution were labeled as “⊙” with excellent dissolving property)	Δ (those having the solubility of less than 0.05 g/L were labeled as “Δ” with fair dissolving property)	Δ (those having the solubility of less than 0.05 g/L were labeled as “Δ” with fair dissolving property)	Δ (those having the solubility of less than 0.05 g/L were labeled as “Δ” with fair dissolving property)	⊙ (those dissolved at 5 g/L or more and those fully miscible with a solvent for dye solution were labeled as “⊙” with excellent dissolving property)	Δ (those having the solubility of less than 0.05 g/L were labeled as “Δ” with fair dissolving property)	Δ (those having the solubility of less than 0.05 g/L were labeled as “Δ” with fair dissolving property)	⊙ (those dissolved at 5 g/L or more and those fully miscible with a solvent for dye solution were labeled as “⊙” with excellent dissolving property)	
			CC#N [Acetonitrile, acetonitrile]	⊙ (those dissolved at 5 g/L or more and those fully miscible with a solvent for dye solution were labeled as “⊙” with excellent dissolving property)	⊙ (those dissolved at 5 g/L or more and those fully miscible with a solvent for dye solution were labeled as “⊙” with excellent dissolving property)	⊙ (those dissolved at 5 g/L or more and those fully miscible with a solvent for dye solution were labeled as “⊙” with excellent dissolving property)	⊙ (those dissolved at 5 g/L or more and those fully miscible with a solvent for dye solution were labeled as “⊙” with excellent dissolving property)	⊙ (those dissolved at 5 g/L or more and those fully miscible with a solvent for dye solution were labeled as “⊙” with excellent dissolving property)	⊙ (those dissolved at 5 g/L or more and those fully miscible with a solvent for dye solution were labeled as “⊙” with excellent dissolving property)	⊙ (those dissolved at 5 g/L or more and those fully miscible with a solvent for dye solution were labeled as “⊙” with excellent dissolving property)	⊙ (those dissolved at 5 g/L or more and those fully miscible with a solvent for dye solution were labeled as “⊙” with excellent dissolving property)	⊙ (those dissolved at 5 g/L or more and those fully miscible with a solvent for dye solution were labeled as “⊙” with excellent dissolving property)	⊙ (those dissolved at 5 g/L or more and those fully miscible with a solvent for dye solution were labeled as “⊙” with excellent dissolving property)	⊙ (those dissolved at 5 g/L or more and those fully miscible with a solvent for dye solution were labeled as “⊙” with excellent dissolving property)
			CC(C)(C)CCP(=O)(O)CCC(C)(C)C [DINHOP, bis-(3,3-dimethyl-butyl)-phosphinic acid]	⊙ (those dissolved at 5 g/L or more and those fully miscible with a solvent for dye solution were labeled as “⊙” with excellent dissolving property)	⊙ (those dissolved at 5 g/L or more and those fully miscible with a solvent for dye solution were labeled as “⊙” with excellent dissolving property)	⊙ (those dissolved at 5 g/L or more and those fully miscible with a solvent for dye solution were labeled as “⊙” with excellent dissolving property)	⊙ (those dissolved at 5 g/L or more and those fully miscible with a solvent for dye solution were labeled as “⊙” with excellent dissolving property)	⊙ (those dissolved at 5 g/L or more and those fully miscible with a solvent for dye solution were labeled as “⊙” with excellent dissolving property)	⊙ (those dissolved at 5 g/L or more and those fully miscible with a solvent for dye solution were labeled as “⊙” with excellent dissolving property)	⊙ (those dissolved at 5 g/L or more and those fully miscible with a solvent for dye solution were labeled as “⊙” with excellent dissolving property)	⊙ (those dissolved at 5 g/L or more and those fully miscible with a solvent for dye solution were labeled as “⊙” with excellent dissolving property)	⊙ (those dissolved at 5 g/L or more and those fully miscible with a solvent for dye solution were labeled as “⊙” with excellent dissolving property)	⊙ (those dissolved at 5 g/L or more and those fully miscible with a solvent for dye solution were labeled as “⊙” with excellent dissolving property)	Δ (those having the solubility of less than 0.05 g/L were labeled as “Δ” with fair dissolving property)
		hardly mixed or dissolved	C[S+](C)[O-] [DMSO, dimethyl sulfoxide]											
